{
  "source": "patent US20220031680A1",
  "about": "“Donecopride As Neuroprotective Agent In the Treatment of Neurodegenerative Diseases” (priority 2018, published 2022)",
  "key": {"[1]": {"system": "GFAP", "experiment": "Astrogliosis (GFAP staining) in 5×FAD mouse brain", "format": "in vivo", "conditions": "1 mg/kg twice a week for 3 months", "description": "(§1) 5×FAD mice received chronic treatments with drugs or vehicle according to 2 different protocols. In each experiment, drugs or vehicle solution were administered i.p. twice a week (1 mg/kg). In “Protocol 1”, mice (n=6-7 mice per group) were treated with compounds for two months, from 2 to 4 months of age. In “Protocol 2”, mice (n=7) were treated with compounds for three months, from 1 month to 4 months of age. At the end of each protocol, mice were anesthetized with a mixture of 100 mg/kg ketamine and 10 mg/kg xylazine in saline solution and perfused transcardially with PBS. Brains were quickly isolated on ice, the olfactory bulbs and cerebellum removed and the two hemispheres divided. One hemisphere was frozen on dry ice and stored at −80° C. for biochemical analysis, while the other was post-fixed in 4% PFA for immunohistochemistry (IHC).\n(§2) Thirty-micrometer-thick sections were cut using a vibratome (Microm HM 650V, Thermo Scientific, Saint Herblain, France) and stored in cryoprotectant medium at −20° C. For the labeling of amyloid plaques, free-floating tissue sections of frontal cortex, hippocampus and entorhinal cortex (coordinates from the bregma: frontal cortex=1.98 mm, hippocampus=−1.94 mm, entorhinal cortex=−3.08 mm) were extensively washed in PBS and then incubated in blocking solution (PBS; 3% BSA; 0.1% Triton X-100) for 1 h. Sections were stained with Hoechst dye (1:1000, Life Technologies, Saint Aubin, France) for 15 minutes to detect cell nuclei and then with freshly prepared thioflavin T solution (#T3516-5G, Sigma-Aldrich) (final concentration: 0.01 mg/ml in blocking buffer) for 15 minutes. After washing in 70% ethanol for 5 minutes, samples were mounted on poly-lysine slides with coverslips. For GFAP (glial fibrillary acidic protein) staining, free-floating brain sections were blocked as before and incubated with polyclonal rabbit anti-GFAP (1:1000, Z0334, Dako, Les Ullis, France) at 4° C. overnight. After thioflavin T staining and washing with 70% ethanol, the secondary Alexafluor 594 goat anti-rabbit antibody (1:1000, A11012, Life Technologies) was added for 2 h. PBS washes and mounting were performed as described before.\n(§3) Images were acquired with an Axiolmager Z1 microscope (Carl Zeiss S.A.S., Marly le Roi, France). Analysis of thioflavin T staining was performed blindly and data are presented as the mean number of particles per mm^2 in two to three tissue sections from the same brain area/animal (Image J software). GFAP expression was quantified using Image J software and results are expressed as area fractions.\n(§4) 28 female 5×FAD mice (C57BL/6J genetic background) were used in this study. Mice received vehicle or compounds (1 mg/kg) i.p., twice a week for three months, from 1 to 4 months of age."}, "[2]": {"system": "5×FAD mice", "experiment": "Novel object recognition test in 5×FAD mice", "format": "in vivo, mouse", "conditions": "1 mg/kg twice a week for 3 months; 24 h inter-session interval", "description": "Animal experiments were carried out in accordance with the Directive by the Council of the European Communities of Nov. 24, 1986 (86/609/EEC). All efforts were made to minimize animal suffering and to reduce the number of mice used. The generation of 5×FAD mice was described in Oakley et al. (2006) J. Neurosci. 26:10129-10140. These transgenic mice overexpress both human APP (695) harboring the Swedish (K670N, M671L), Florida (1716V) and London (V7171) familial AD (FAD) mutations and human Presenilin 1 (PS1) harboring the two FAD mutations M146L and L286V. Expression of both transgenes is regulated by neuronal-specific elements of the mouse Thy1 promoter. The 5×FAD strain (B6/SJL genetic background) was maintained by crossing hemizygous transgenic mice with B6/SJL F1 breeders. The 5×FAD strain (C57BL/6J genetic background) was maintained by crossing hemizygous transgenic mice with C57BL/6J F1 breeders. All animals were genotyped by PCR using tail genomic DNA. Transgenic and WT mice were bred in our animal facility, had access to food and water ad libitum and were housed under a 12 h light-dark cycle at 22-24° C. Female 5×FAD mice were used in this study. For each experiment, the age of mice is indicated in months (with a two-week range).\nCompounds were resuspended in DMSO (37.5 μg/μl, stored at −20° C.) and freshly diluted 1:250 in 0.9% NaCl prior administration. Vehicle solution (0.9% NaCl, 0.4% DMSO) was used as control.\n5×FAD mice received chronic treatments with drugs or vehicle according to 2 different protocols. In each experiment, drugs or vehicle solution were administered i.p. twice a week (1 mg/kg). […]\nThe cognitive performance of mice was tested using the novel object recognition (NOR) test (Bevins and Besheer (2006) Nat. Protoc. 1:1306-1311). […] The whole experiment was video-recorded and object exploration [time spent by the mouse nose in contact with the object or by sniffing it at a distance s 1 cm] was blindly measured. […] A discrimination index was also calculated ([novel−familiar]/[familiar+novel]). […]"}, "[3]": {"system": "Aβ42", "experiment": "Aβ42 concentration in cerebrospinal fluid of 5×FAD mice", "format": "in vivo, mouse", "conditions": "1 mg/kg twice a week for 3 months; compared to controls", "description": "as §1\nMice were anesthetized and mounted onto a stereotaxic instrument. The neck skin was cut and subcutaneous tissue and muscles separated with the help of micro-retractors (Fine Science Tools, Heidelberg, Germany). Mice were then laid down so that the head formed an angle of about 135° with the body (Liu and Duff (2008) J. Vis. Exp. 10:960). A capillary tube (Borosilicate glass, B100-75-10, Sutter Instruments, Novato, Calif., USA) was used to punch the dura mater of the cisterna magna. CSF was collected by capillary action and transferred to 0.5 mL microtubes, immediately frozen on dry ice and stored at −80° C. until use. Once thawed, samples were heated at 60° C. for 5 min as described in the international application WO 2008/009868 and analyzed without further freezing-thawing cycles.\nELISA kits from IBL International (Hamburg, Germany) for the dosage of Aβ40 (human amyloid β (1-40) assay kit, #27713) or Aβ42 (human amyloid β (1-42) assay kit, #27719) were used according to the manufacturer's instructions. Reactions were read at 620 nm and 450 nm using an Infinite 2000 luminescence counter. The obtained values were normalized to the protein concentration of each sample, measured using a BCA protein assay (Sigma-Aldrich). […]"}, "[4]": {"system": "amyloid plaques", "experiment": "Number of amyloid plaques (thioflavin T) in 5×FAD mouse brain", "format": "in vivo", "conditions": "1 mg/kg twice a week for 3 months", "description": "as §1, §2, §3, §4\nAnti-amyloid effect. Frontal cortex, hippocampus and entorhinal cortex were analyzed as representative areas of 5×FAD mouse brain (frontal, median and caudal sections) and of human brain regions that are affected early by Alzheimer's disease and are highly enriched in amyloid deposits."}},
  "data": [
    {"smiles": "CCCCN1CCC(CCC(=O)c2cc(Cl)c(N)cc2OC)CC1", "note": "[RS 67333, 1-(4-amino-5-chloro-2-methoxy-phenyl)-3-(1-butyl-4-piperidinyl)-1-propanone, reference compound]", "values": [
      {"measurement": "GFAP staining in frontal cortex or hippocampus", "setting": "[1]; compared to controls", "result": "not significantly different"},
      {"measurement": "decrease of GFAP staining in entorhinal brain slices", "setting": "[1]; compared to vehicle", "result": "62±6", "unit": "%"},
      {"measurement": "recognition memory, exploration of novel vs familiar object (NOR)", "setting": "[2]", "result": "reverses cognitive impairment"},
      {"measurement": "Aβ42 concentration in cerebrospinal fluid (CSF)", "setting": "[3]", "result": "not significantly different"},
      {"measurement": "Amyloid plaque number in hippocampus", "setting": "[4]; compared to controls", "result": "not significantly different"},
      {"measurement": "reduction of the number of amyloid plaques in entorhinal cortex", "setting": "[4]; compared to vehicle", "result": "No significant effect"},
      {"measurement": "reduction of the number of amyloid plaques in frontal cortex", "setting": "[4]; compared to vehicle", "result": "No significant effect"}
    ]}
  ]
}
